Experimental findings from patent US20070129336A1, “Camphanylidene and phenylalkyl inositol polyphosphate compounds, compositions, and methods of their use” (Inologic, Inc., priority 2003, published 2007) are described below.

The structures appear in SMILES notation.

Assay [1] concerns human CF nasal epithelia. Kind of assay: Blue Dextran volume transport assay. Conditions: CF nasal epithelia monolayers, apical application, 18 hours. It is filed as cell-based. The text has this:
In normal human airway epithelia, Na+ and Cl− currents (CFTR and Ca2+-activated Cl− currents) contribute to airway surface liquid (ASL) fluid volume regulation depending on signaling equilibria. In contrast, in human CF airway epithelia, Na+ currents through ENaC dominate basal ASL volume regulation accompanied by a relatively minor contribution through Ca2+-activated Cl− currents. The combination of enhanced ENaC currents and transient Ca2+-activated Cl− currents in CF result in an inadequate hydration of the ASL and reduction of mucociliary clearance. […] The resulting reduction in the ability of these monolayers to concentrate BD was taken as a functional indicator of the test compound's involvement in the inhibition of ENaC.
All procedures were performed aseptically. The Blue Dextran (BD) stock solution was prepared with HEPES modified Ringer's buffer (HMRB) (2 mg BD/ml buffer). The compounds tested were solubilized in HMRB containing ˜1 μM BD. Final concentration of vehicle is 0.1% unless otherwise indicated (1:1, DMSO+DMSO containing 5% (w/v) pluronic-F127). The composition of HMRB (pH 7.3, 6.7 when equilibrated with 95%air/5%CO2) is as follows (in mM): 135 NaCl, 1.2 CaCl2, 1.2 MgCl2, 2.4 K2HPO4, 0.6 KH2PO4, 10 HEPES, 10 glucose (˜285 mOsm.). 200 μl of the BD solution was applied to the apical surface and placed in a highly humidified incubator (Forma model 3956 set on “high” humidity) for 18 hours. Basolateral buffer consisted of BEGM (˜300 mOsm.). After 18 hours, 60 μl of the remaining apical buffer was sampled and transferred to a 0.7 ml micro-centrifuge tube for storage until analysis. A standard concentration curve was obtained by determining the optical densities, at 660 nm, of a serial dilution of 10 μM Blue Dextran in HMRB in a 96-well plate using a Packard Spectracount. The [BD] of the samples, which were read on the same plate, was determined by extrapolation from the BD standard curve using Packard I-Smart software. The increase in [BD] from the starting value of 1 μM was taken to be an indication of the magnitude of volume absorption occurring across the monolayer. The rate of absorption was calculated by dividing the change in volume by the duration of the experiment. This value was normalized to a surface area of 1 cm^2, to give μl·cm2 −1·hr −1. All experiments, unless otherwise indicated, were conducted over a period of 18 hours.

Assay [2] concerns iNOS. Kind of assay: Survey of iNOS inhibition, 2 hr LPS pre-stimulation (nitrite by Greiss reagent). It is filed as cell-based, murine. Conditions: RAW 264.7 cells, LPS/ATP stimulation for two hours, then compound added. As for the experimental part: We chose the well characterized LPS stimulation of the murine macrophage cell line RAW 264.7, that produces substantial quantities of NO, to screen inositol polyphosphate compounds in vitro (FIGS. 8-12 and Table 1). This assay system offers a number of opportunities to characterize drug action as pre-transcriptional, post transcriptional, translational or post translational.
Nitrite (NO2^−) accumulation in cell-free supernatant, used as an indicator of NO production, was measured using the modified Greiss reagent (Sigma G4410, St Louis, Mo.). This method was applied as described elsewhere (Martinez, J. et al., “Regulation of prostaglandin E2 production by the superoxide radical and nitric oxide in mouse peritoneal macrophages,” Free Radical Res 32:303-311 (2000)). Briefly, RAW264.7 cells (ATCC, #TIB-71) were maintained in standard tissue culture flasks and with DMEM+10% heat inactivated fetal bovine serum(HI-FBS) (Fetal-bovine serum, Heat-inactivated, Sercare Life Sciences, Oceanside, Calif.). Experiments were initiated by seeding logarithmic cells at […] per well in a 96-well plate in phenol-red free RPMI 1640 (Sigma #R8755)+10% HI-FBS at least four hours before the initiation of the experiment. Cells were exposed to treatment compounds for a minimum of 30 minutes in RPMI-1640 supplemented with 10% fetal calf serum. The compound treatment was removed and inflammatory compounds dissolved in RPMI-1640 supplemented with 10% FBS were applied to the cells. Stimulated cells and appropriate controls were incubated for 18-24 hours before sampling 50 μl of the cell-free supernatant from each well. This sample of supernatant was combined with 25 μl of a nitrate reductase cocktail (0.1 units/ml nitrate reductase enzyme, 5 μM FAD, 30 μM NADPH) and incubated for 30 minutes[…]. To this mixture, 25 μl of LDH cocktail (100 units/ml rabbit muscle lactate dehydrogenase in 0.3 mM sodium pyruvate) was added and the total mixture was incubated another 5-10 min at […]. Greiss reagent was added in 100 μl amounts to each 100 μl experimental sample. Color development proceeded for a minimum of 10 minutes while protected from light. Nitrite levels were compared to a sodium nitrite standard curve freshly prepared in the same medium used for the growth and incubation of the cells and treated with the same enzyme treatments. Color development was recorded by using a Packard Spectracount Plate reader at 540 nm wave length.
It is important to identify the conditions under which the compounds exert their greatest desired effect with the minimal adverse effects. Understanding this relationship is important as signaling molecule mimetics may require special conditions of concentration and duration to generate the desired therapeutic effect. To ascertain whether effects could be observed post-exposure to stimulus, cells were exposed to the LPS/ATP stimulation for two hours at […] after which compound was added.

The test system of assay [3] is CFHNE cell monolayers. Kind of assay: Cystic fibrosis human nasal epithelial cell Ussing chamber assay. It is filed as cell-based. The conditions noted are these: 2 hour pretreatment, measured 22 hours later. The text has this:
CF Human Nasal Epithelial (CFHNE) Cell Isolation and Proliferation: Surgically removed nasal polyps were obtained from volunteers in collaboration with Dr. Bonnie Ramsey at Children's Hospital, Seattle and Dr. Ludwig Allegra at the Northwest Nasal Sinus Center, and transported on ice in a sterile container containing a 1:1 mixture of Dulbecco's modification of minimum essential medium Eagle and Ham's F-12 nutrient medium (DMEM/F-12)(Irvine Scientific, Santa Ana, Calif.) supplemented with 100 U/ml penicillin, 0.1 mg/ml streptomycin, 10 mM HEPES, and 2 mM L-glutamine. The tissue samples were aseptically removed from the transport medium and washed (repeated 5X) by suspending in 40 ml of Joklik's modification of minimum essential medium Eagle (JMEM) at 4° C., and centrifuging at 500 RPM. The supernatant was aspirated and discarded. The tissue was then transferred to JMEM containing 200 U/ml penicillin, 0.2 mg/ml streptomycin, 0.1 mg/ml gentamicin sulfate (Clonetics, San Diego, Calif.), and 0.1 μg/ml amphotericin-B (Clonetics), and 0.1% Protease (Sigma), washed an additional 2×, suspended in 15 ml in a 10 cm tissue culture dish, and incubated at 4° C. for 24 hours. The tissue samples were then gently triturated, the connective tissue aseptically removed, and the remaining cell suspension centrifuged at 1000 RPM for 5 min. […] The cells were then counted using a hemocytometer. […]

As to `CCC(=O)OCOP(=O)(OCOC(=O)CC)OC1C2OC3(CC4CCC3(C)C4(C)C)OC2C(OP(=O)(OCOC(=O)CC)OCOC(=O)CC)C(OP(=O)(OCOC(=O)CC)OCOC(=O)CC)C1OP(=O)(OCOC(=O)CC)OCOC(=O)CC` (centres unmarked) [INO-4996, 1,2-camphanylidene-myo-inositol 3,4,5,6-tetrakisphosphate octakis (propionoxymethyl) ester], the “inhibition of fluid absorption” value in assay [1] is “dose dependent inhibition of fluid absorption”. Besides, the IC50 was 6.25 µM in assay [2] (experiment 1 of three), 3.13 µM in assay [2] (experiment 2 of three) and 6.25 µM in assay [2] (experiment 3 of three).

As to `CCCC(=O)OC1C(OCCCc2ccccc2)C(OP(=O)(OCOC(=O)CC)OCOC(=O)CC)C(OP(=O)(OCOC(=O)CC)OCOC(=O)CC)C(OP(=O)(OCOC(=O)CC)OCOC(=O)CC)C1OP(=O)(OCOC(=O)CC)OCOC(=O)CC` (centres unmarked) [INO-4997, 2-O-butyryl-1-O-(3-phenylpropyl)-myo-inositol 3,4,5,6-tetrakisphosphate octakis (propionoxymethyl) ester], the “inhibition of fluid absorption” value in assay [1] is “dose dependent inhibition of fluid absorption”. Also, in assay [3], the “effect on basal Isc” value is reported as “prolonged effect”. The IC50 is 12.5 µM in assay [2] (experiment 1 of three), 12.5 µM in assay [2] (experiment 2 of three) and 9 µM in assay [2] (experiment 3 of three).

With `N=C(N)NC(=O)c1nc(Cl)c(N)nc1N` [amiloride, reference compound], the “inhibition of fluid absorption” value in assay [1] is reported as “inhibited fluid absorption measured by the Blue Dextran assay in a dose dependent fashion”.

For `CCC(=O)OCOP(=O)(OCOC(=O)CC)OC1C2OC3(CC4CCC3(C)C4(C)C)OC2C(OP(=O)(OCOC(=O)CC)OCOC(=O)CC)C(OP(=O)(OCOC(=O)CC)OCOC(=O)CC)C1OP(=O)(OCOC(=O)CC)OCOC(=O)CC` (centres unmarked) [INO-4984, 2,3-camphanylidene-myo-inositol 1,4,5,6-tetrakisphosphate octakis (propionoxymethyl) ester], the “inhibition of fluid absorption” value in assay [1] is on record as “dose dependent inhibition of fluid absorption”. In addition, the IC50 in assay [2] (experiment 1 of three) turned out to be 18 µM; in assay [2] (experiment 2 of three) it was 3.13 µM; in assay [2] (experiment 3 of three) it was 12.5 µM.

By IC50 is commonly meant the concentration at which inhibition is half-maximal. A lower IC50 goes with greater potency in that assay.
